Consider 18 molecules from US12552785B2, “Pyrazolo[1,5-α]pyridine derivative, preparation method therefor, and composition and use thereof” (SHENZHEN ZHONGGE BIOLOGICAL TECHNOLOGY CO., LTD., priority 2020, dated 2026).

For test [1], the target named is RET (Homo sapiens, UniProt P07949). The experiment in a line: HTRF method for testing the inhibitory activity of compounds against RET. The settings on record: IC50 by nonlinear regression, read-out: RET kinase activity. The format is biochemical. As for the experimental part: (a) In Vitro Screening Experiment-HTRF Method for Testing the Inhibitory Activity of Compounds Against RET Experimental Procedure: 1. […] 2. The test compound (5 mM stock solution) was diluted 5 folds to 1 mM with 100% dimethyl sulfoxide; the compound was diluted into 10 concentrations at an equal ratio of 1:3 in a 384-well dilution plate. 3. 0.2 μL of the serially diluted compound was added to a 384-well plate using an Echo 550 pipetting system, 2 replicate wells for each concentration, and the final concentration of dimethyl sulfoxide was 0.5% (v/v). […] 6. […] The reaction solution was centrifuged at 1000 g for 30 s, and then sealed, and incubated at room temperature for 30 min. 8. […] 10. […] 11. […] IC50 was calculated with software GraphPad 6.0 by fitting inhibition values and logarithms of compound concentrations to a nonlinear regression (dose response−variable slope).
In general terms: Time-resolved FRET reads energy transfer from a long-lived donor to a nearby acceptor.

Test [2] has as its target T1, Ba/F3-KIF5B-RET cell (Homo sapiens, UniProt P07949).
T1 construct: fused on or other part: P33176 (Kinesin-1 heavy chain)
The experiment in a line: CellTiter-Glo luminescence assay for inhibitory activity against Ba/F3-KIF5B-RET cell. The test is classed as cell-based. Particulars: Ba/F3-KIF5B-RET cells, 72 h. The source says: (c) In Vitro Screening Experiment—CellTiter-Glo Luminescence Assay for Testing the Inhibitory Activity of Compounds Against Ba/F3-KIF5B-RET Cell Experimental Procedure: 1. The mammalian cell expression vector containing human KIF5B-RET cDNA was introduced into Ba/F3 cells using the Neon® transfection system method, and the surviving clones screened by puromycin were subjected to cell growth inhibitory function experiments and Western blotting to verify cell lines with stable and high expression of RET. 2. […] 3. The test compound (5 mM stock) was diluted 2.5 folds to 2 mM with 100% dimethyl sulfoxide; and the compound was diluted into 10 concentrations at an equal ratio of 1:3 in a 384-well dilution plate. 4. […] 6. […] 7. By fitting the data with XLFit 5.0 based on the parameters formula, the IC50 value was calculated as: Y=Bottom+(Top−Bottom)/(1+10^((Log IC50−X)*HillSlope)).
For orientation: In ATP-based viability assays light output follows the ATP content of the culture.

Test [3] addresses VEGFR2 (Homo sapiens, UniProt P35968). Kind of test: HTRF method for testing the inhibitory activity of compounds against VEGFR2. The format is biochemical. Particulars: IC50 by nonlinear regression, read-out: VEGFR2 kinase activity. How it is done:
(b) In Vitro Screening Experiment—HTRF Method for Testing the Inhibitory Activity of Compounds Against VEGFR2 Experimental Procedure: 1. […] The test compound (5 mM stock solution) was diluted 5 folds to 1 mM with 100% dimethyl sulfoxide; the compound was diluted into 10 concentrations at an equal ratio of 1:3 in a 384-well dilution plate. 3. […] 6. […] The reaction solution was centrifuged at 1000 g for 30 s, and then sealed, and incubated at room temperature for 40 min. 8. […] 10. […] 11. […] 12. IC50 was calculated with software GraphPad 6.0 by fitting inhibition values and logarithms of compound concentrations to a nonlinear regression (dose response−variable slope).

VEGFR2, sequence (P35968 20-1356, species assumed): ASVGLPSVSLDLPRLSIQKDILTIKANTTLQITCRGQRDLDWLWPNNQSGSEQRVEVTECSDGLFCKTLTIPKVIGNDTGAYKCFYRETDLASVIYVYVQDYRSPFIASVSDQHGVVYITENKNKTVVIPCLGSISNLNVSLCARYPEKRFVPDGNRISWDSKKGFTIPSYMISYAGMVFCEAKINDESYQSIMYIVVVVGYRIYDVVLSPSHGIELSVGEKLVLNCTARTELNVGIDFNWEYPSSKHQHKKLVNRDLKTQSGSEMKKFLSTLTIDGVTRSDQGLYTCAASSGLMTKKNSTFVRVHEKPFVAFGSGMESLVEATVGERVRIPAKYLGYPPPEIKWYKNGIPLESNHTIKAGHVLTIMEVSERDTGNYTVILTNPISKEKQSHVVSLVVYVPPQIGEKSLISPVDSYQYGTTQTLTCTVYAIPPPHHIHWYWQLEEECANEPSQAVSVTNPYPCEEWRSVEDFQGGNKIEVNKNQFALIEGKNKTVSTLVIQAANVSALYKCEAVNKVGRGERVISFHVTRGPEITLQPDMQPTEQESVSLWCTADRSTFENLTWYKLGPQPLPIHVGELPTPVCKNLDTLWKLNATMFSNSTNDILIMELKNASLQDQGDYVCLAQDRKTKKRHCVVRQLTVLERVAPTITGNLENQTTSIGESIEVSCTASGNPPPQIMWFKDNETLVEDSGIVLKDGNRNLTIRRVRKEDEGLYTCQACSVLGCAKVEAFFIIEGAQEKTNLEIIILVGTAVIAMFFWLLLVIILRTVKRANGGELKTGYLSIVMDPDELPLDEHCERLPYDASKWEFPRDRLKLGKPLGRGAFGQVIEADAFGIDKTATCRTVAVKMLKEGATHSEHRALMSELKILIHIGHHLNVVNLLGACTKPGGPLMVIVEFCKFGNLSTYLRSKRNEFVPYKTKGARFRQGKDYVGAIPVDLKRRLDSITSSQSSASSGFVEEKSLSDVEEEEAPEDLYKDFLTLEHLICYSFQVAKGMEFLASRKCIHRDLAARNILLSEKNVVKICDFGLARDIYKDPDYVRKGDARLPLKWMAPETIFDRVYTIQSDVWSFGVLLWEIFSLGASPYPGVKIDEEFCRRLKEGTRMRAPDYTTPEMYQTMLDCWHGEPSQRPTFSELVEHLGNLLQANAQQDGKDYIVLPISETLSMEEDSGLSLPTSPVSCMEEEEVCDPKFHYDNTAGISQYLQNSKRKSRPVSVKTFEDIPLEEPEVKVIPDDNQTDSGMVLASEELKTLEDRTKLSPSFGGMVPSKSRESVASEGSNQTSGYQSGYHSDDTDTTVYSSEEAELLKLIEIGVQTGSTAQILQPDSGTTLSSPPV
T1 sequence (P07949 whole entry, change not shown, the tested form may be a part): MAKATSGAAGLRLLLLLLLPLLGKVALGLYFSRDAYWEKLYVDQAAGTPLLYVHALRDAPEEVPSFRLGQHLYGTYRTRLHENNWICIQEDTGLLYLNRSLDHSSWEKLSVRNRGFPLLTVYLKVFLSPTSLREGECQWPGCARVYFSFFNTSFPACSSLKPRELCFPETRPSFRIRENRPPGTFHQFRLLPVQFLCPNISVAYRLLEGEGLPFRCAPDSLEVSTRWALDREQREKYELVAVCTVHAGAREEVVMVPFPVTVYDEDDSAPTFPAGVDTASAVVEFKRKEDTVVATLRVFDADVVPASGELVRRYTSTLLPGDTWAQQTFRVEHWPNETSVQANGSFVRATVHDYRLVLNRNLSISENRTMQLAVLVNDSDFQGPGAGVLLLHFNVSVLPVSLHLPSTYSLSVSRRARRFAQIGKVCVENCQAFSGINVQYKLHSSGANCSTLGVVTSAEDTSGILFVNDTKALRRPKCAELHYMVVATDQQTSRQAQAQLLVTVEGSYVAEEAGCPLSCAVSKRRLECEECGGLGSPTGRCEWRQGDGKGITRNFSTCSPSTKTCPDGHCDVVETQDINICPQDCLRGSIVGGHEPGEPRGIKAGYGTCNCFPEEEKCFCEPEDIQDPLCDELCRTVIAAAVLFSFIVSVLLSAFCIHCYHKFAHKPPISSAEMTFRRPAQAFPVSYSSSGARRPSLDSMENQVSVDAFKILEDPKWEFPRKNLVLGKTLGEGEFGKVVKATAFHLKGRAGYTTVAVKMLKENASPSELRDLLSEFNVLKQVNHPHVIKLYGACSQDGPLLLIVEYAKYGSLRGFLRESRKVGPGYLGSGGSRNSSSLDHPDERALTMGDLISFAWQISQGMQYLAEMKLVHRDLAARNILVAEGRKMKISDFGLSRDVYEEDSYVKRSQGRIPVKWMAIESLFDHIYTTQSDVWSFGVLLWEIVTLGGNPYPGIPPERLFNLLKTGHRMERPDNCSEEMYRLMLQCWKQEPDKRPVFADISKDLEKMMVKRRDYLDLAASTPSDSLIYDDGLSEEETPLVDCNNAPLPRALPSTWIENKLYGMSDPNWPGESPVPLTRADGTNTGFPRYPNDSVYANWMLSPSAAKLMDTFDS
RET, sequence (P07949 29-1114): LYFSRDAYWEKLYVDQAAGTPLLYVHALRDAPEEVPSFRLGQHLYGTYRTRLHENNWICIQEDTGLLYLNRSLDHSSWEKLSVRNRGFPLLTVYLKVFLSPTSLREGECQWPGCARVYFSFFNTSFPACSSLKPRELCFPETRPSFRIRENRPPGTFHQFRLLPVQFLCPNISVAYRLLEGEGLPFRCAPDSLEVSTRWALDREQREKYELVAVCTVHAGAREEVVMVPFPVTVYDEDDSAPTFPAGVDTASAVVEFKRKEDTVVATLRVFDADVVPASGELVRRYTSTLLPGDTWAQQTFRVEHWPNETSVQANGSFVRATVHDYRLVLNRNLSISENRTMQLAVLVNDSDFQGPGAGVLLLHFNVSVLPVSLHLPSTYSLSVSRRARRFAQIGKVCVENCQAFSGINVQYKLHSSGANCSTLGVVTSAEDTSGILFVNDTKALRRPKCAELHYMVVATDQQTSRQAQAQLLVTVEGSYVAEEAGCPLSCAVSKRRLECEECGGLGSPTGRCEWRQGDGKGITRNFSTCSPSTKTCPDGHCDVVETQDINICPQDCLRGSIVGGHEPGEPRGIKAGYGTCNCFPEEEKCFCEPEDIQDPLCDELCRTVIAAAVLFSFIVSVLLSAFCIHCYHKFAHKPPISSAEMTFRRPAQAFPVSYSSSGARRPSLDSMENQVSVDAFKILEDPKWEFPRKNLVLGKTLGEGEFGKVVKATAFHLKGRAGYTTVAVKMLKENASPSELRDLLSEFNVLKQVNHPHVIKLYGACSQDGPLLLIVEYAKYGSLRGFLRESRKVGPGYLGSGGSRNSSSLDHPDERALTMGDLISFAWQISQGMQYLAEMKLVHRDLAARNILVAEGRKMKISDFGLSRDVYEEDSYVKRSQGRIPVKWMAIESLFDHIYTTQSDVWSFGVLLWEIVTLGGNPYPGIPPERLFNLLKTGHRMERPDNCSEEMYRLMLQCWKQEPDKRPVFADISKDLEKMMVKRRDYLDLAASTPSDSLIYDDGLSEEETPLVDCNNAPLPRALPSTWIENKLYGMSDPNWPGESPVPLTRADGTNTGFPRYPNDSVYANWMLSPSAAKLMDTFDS

Broadly, the GI50 is the concentration at which growth is held to half of that of the control. A lower GI50 goes with more potent growth inhibition. For `CN(Cc1ccc2ncccc2c1)c1ccc(-c2cc(OCC(C)(C)O)cn3ncc(C#N)c23)cn1` [Compound 14, 6-(2-hydroxy-2-methylpropoxy)-4-(6-(methyl(quinolin-6-ylmethyl)amino)pyridin-3-yl)pyrazolo[1,5-a]pyridine-3-carbonitrile], the IC50 in test [1] was 16.6 nM; in test [3] it was 347 nM. This molecule registered a GI50 in test [2] of 220 nM.

Consider `CC[C@H](Nc1ccc(-c2cc(OCC(C)(C)O)cn3ncc(C#N)c23)cn1)c1ccc(-n2cc(F)cn2)nc1` [Compound 15, (S)-4-(6-((1-(6-(4-fluoro-1H-pyrazol-1-yl)pyridin-3-yl)propyl)amino)pyridin-3-yl)-6-(2-hydroxy-2-methylpropoxy)pyrazolo[1,5-a]pyridine-3-carbonitrile], for which the IC50 was 0.58 nM in test [1] and 2.95 nM in test [3]. This molecule also yielded a GI50 in test [2] of 10.4 nM.

With `C[C@H](Nc1ccc(-c2cc(OCC(C)(C)O)cn3ncc(C#N)c23)cn1)c1ccc(-n2cc(F)cn2)cc1` [Compound 16, (S)-4-(6-((1-(4-(4-fluoro-1H-pyrazol-1-yl)phenyl)ethyl)amino)pyridin-3-yl)-6-(2-hydroxy-2-methylpropoxy)pyrazolo[1,5-a]pyridine-3-carbonitrile], the IC50 is 1.63 nM in test [1] and 15.6 nM in test [3]. The GI50 in test [2] came out at 35.5 nM.

With `C[C@@H](c1ccc(-n2cc(F)cn2)cc1)N(C)c1ccc(-c2cc(OCC(C)(C)C#N)cn3ncc(C#N)c23)cn1` [Compound 17, (S)-6-(2-cyano-2-methylpropoxy)-4-(6-((1-(4-(4-fluoro-1H-pyrazol-1-yl)phenyl)ethyl)(methyl)amino)pyridin-3-yl)pyrazolo[1,5-a]pyridine-3-carbonitrile], the IC50 in test [1] is 18.4 nM; in test [3], 1210 nM. Moreover, the GI50 in test [2] came out at 184 nM.

On to `C[C@@H](c1ccc(-n2cc(F)cn2)nc1)N(C)c1ccc(-c2cc(OCC(C)(C)C#N)cn3ncc(C#N)c23)cn1` [Compound 18, (S)-6-(2-cyano-2-methylpropoxy)-4-(6-((1-(6-(4-fluoro-1H-pyrazol-1-yl)pyridine-3-yl)ethyl)(methyl)amino)pyridin-3-yl)pyrazolo[1,5-a]pyridine-3-carbonitrile], for which the IC50 in test [1] stood at 0.4 nM; in test [3] it was 135 nM. In test [2], this molecule displayed a GI50 of 40 nM.

Regarding `C[C@@H](c1ccc(-n2cc(F)cn2)nc1)N(C)c1ccc(-c2cc(N3CCN(C)CC3)cn3ncc(C#N)c23)cn1` [Compound 19, (S)-4-(6-((1-(6-(4-fluoro-1H-pyrazol-1-yl)pyridin-3-yl)ethyl)(methyl)amino)pyridine-3-yl)-6-(4-methylpiperazin-1-yl)pyrazolo[1,5-a]pyridine-3-carbonitrile], the results for the IC50 in test [1] and in test [3] were 0.42 nM and 41.1 nM, respectively. In test [2], this molecule returned a GI50 of 41 nM.

For the molecule `C[C@@H](c1ccc(-n2cc(F)cn2)nc1)N(C)c1ccc(-c2cc(OCCO)cn3ncc(C#N)c23)cn1` [Compound 20], the figures for the IC50 in test [1] and in test [3] were 0.25 nM and 10.1 nM, respectively. Also, in test [2], halving of growth (GI50) required 13.5 nM.

Turning to `C[C@@H](c1ccc(-n2cc(F)cn2)nc1)N(C)c1ccc(-c2cc(N3CCC(C)(O)CC3)cn3ncc(C#N)c23)cn1` [Compound 23, (S)-4-(6-((1-(6-(4-fluoro-1H-pyrazol-1-yl)pyridin-3-yl)ethyl)(methyl)amino)pyridine-3-yl)-6-(4-hydroxy-4-methylpiperidin-1-yl)pyrazolo[1,5-a]pyridine-3-carbonitrile], the values for the IC50 in test [1] and in test [3] were 0.82 nM and 74.9 nM, respectively. The molecule also showed a GI50 in test [2] of 18.1 nM.

As for `C[C@@H](c1ccc(-n2cc(F)cn2)nc1)N(C)c1ccc(-c2cc(N3CC(C)(C#N)C3)cn3ncc(C#N)c23)cn1` [Compound 24], the IC50 in test [1] was determined as 0.99 nM; in test [3] it was 64.6 nM. Further, the GI50 in test [2] turned out to be 5.85 nM.

With `C[C@@H](c1ccc(-n2cc(F)cn2)nc1)N(C)c1ccc(-c2cc(N3CCC4(CC3)COC4)cn3ncc(C#N)c23)cn1` [Compound 25, (S)-4-(6-((1-(6-(4-fluoro-1H-pyrazol-1-yl)pyridin-3-yl)ethyl)(methyl)amino)pyridine-3-yl)-6-(2-oxo-7-azaspiro[3.5]nonan-7-yl)pyrazolo[1,5-a]pyridine-3-carbonitrile], the values for the IC50 in test [1] and in test [3] were 0.54 nM and 61.1 nM, respectively. This molecule also yielded a GI50 in test [2] of 14.7 nM.

Regarding `C[C@@H](c1ccc(-n2cc(F)cn2)nc1)N(C)c1ccc(-c2cc(N3CCOCC3)cn3ncc(C#N)c23)cn1` [Compound 26, (S)-4-(6-((1-(6-(4-fluoro-1H-pyrazol-1-yl)pyridin-3-yl)ethyl)(methyl)amino)pyridine-3-yl)-6-morpholinopyrazolo[1,5-a]pyridine-3-carbonitrile], the IC50 came out at 0.245 nM in test [1] and 33 nM in test [3]. In test [2], this molecule showed a GI50 of 7.4 nM.

On to `C[C@@H](c1ccc(-n2cc(F)cn2)nc1)N(C)c1ccc(-c2cc(C#CC(C)(C)O)cn3ncc(C#N)c23)cn1` [Compound 27, (S)-4-(6-((1-(6-(4-fluoro-1H-pyrazol-1-yl)pyridin-3-yl)ethyl)(methyl)amino)pyridine-3-yl)-6-(3-hydroxy-3-methyl-1-yn-1-yl)pyrazolo[1,5-a]pyridine-3-carbonitrile], for which the results for the IC50 in test [1] and in test [3] were 1.33 nM and 21.9 nM, respectively. In test [2], the GI50 worked out at 43.8 nM.

`C[C@@H](c1ccc(-n2cc(F)cn2)nc1)N(C)c1ccc(-c2cc(OCC3CC3)cn3ncc(C#N)c23)cn1` [Compound 28, (S)-6-(cyclopropylmethoxy)-4-(6-((1-(6-(4-fluoro-1H-pyrazol-1-yl)pyridin-3-yl)ethyl)(methyl)amino)pyridin-3-yl)pyrazolo[1,5-a]pyridine-3-carbonitrile]: the results for the IC50 in test [1] and in test [3] were 2.25 nM and 1190 nM, respectively. The GI50 in test [2] was determined as 177 nM.

Consider `C[C@@H](c1ccc(-n2cc(F)cn2)nc1)N(C)c1ccc(-c2cc(-c3cnn(C)c3)cn3ncc(C#N)c23)cn1` [Compound 29, (S)-6-(1-methyl-1H-pyrazol-4-yl)-4-(6-((1-(6-(4-fluoro-1H-pyrazol-1-yl)pyridine-3-yl)ethyl)(methyl)amino)pyridin-3-yl)pyrazolo[1,5-a]pyridine-3-carbonitrile], for which the IC50 in test [1] was found to be 0.36 nM; in test [3] it was 3.29 nM. For the same molecule, the GI50 in test [2] was found to be 0.75 nM.

As for `CCOc1cc(-c2ccc(N(C)[C@@H](C)c3ccc(-n4cc(F)cn4)nc3)nc2)c2c(C#N)cnn2c1` [Compound 30, (S)-4-(6-((1-(6-(4-fluoro-1H-pyrazol-1-yl)pyridin-3-yl)ethyl)(methyl)amino)pyridine-3-yl)-6-ethoxypyrazolo[1,5-a]pyridine-3-carbonitrile], the IC50 in test [1] worked out at 0.47 nM; in test [3], 175 nM. The molecule further yielded a GI50 in test [2] of 15.1 nM.

Take `C[C@@H](c1ccc(-n2cc(F)cn2)nc1)N(C)c1ccc(-c2cc(OCC#N)cn3ncc(C#N)c23)cn1` [Compound 32, (S)-4-(6-((1-(6-(4-fluoro-1H-pyrazol-1-yl)pyridin-3-yl)ethyl)(methyl)amino)pyridine-3-yl)-6-cyanomethoxypyrazolo[1,5-a]pyridine-3-carbonitrile]: the values for the IC50 in test [1] and in test [3] were 4.23 nM and greater than 5000 nM, respectively. In test [2], it took 224 nM to inhibit growth by half (GI50).

As for `CC(C)COc1cc(-c2ccc(N(C)[C@@H](C)c3ccc(-n4cc(F)cn4)nc3)nc2)c2c(C#N)cnn2c1` [Compound 33, (S)-4-(6-((1-(6-(4-fluoro-1H-pyrazol-1-yl)pyridin-3-yl)ethyl)(methyl)amino)pyridine-3-yl)-6-isobutoxypyrazolo[1,5-a]pyridine-3-carbonitrile], the IC50 in test [1] is 3.04 nM; in test [3], greater than 5000 nM. This molecule also displayed a GI50 in test [2] of 413 nM.

As for `C[C@@H](c1ccc(-n2cc(F)cn2)nc1)N(C)c1ccc(-c2cc(OCC(F)F)cn3ncc(C#N)c23)cn1` [Compound 34, (S)-4-(6-((1-(6-(4-fluoro-1H-pyrazol-1-yl)pyridin-3-yl)ethyl)(methyl)amino)pyridine-3-yl)-6-(2,2-difluoroethoxy)pyrazolo[1,5-a]pyridine-3-carbonitrile], the IC50 in test [1] was determined as 1.55 nM; in test [3] it was 128 nM. Also, the GI50 in test [2] came to 119 nM.
